Laboratory results taken from ChEMBL document CHEMBL3045302, “Structure-activity Relationship for the Insect Antifeedant Activity of Benzofuran Derivatives” (Biosci Biotechnol Biochem, 1999).

Key:
[1] = tested on: Spodoptera litura; experiment: Antifeedant activity against Spodoptera litura third-instar larvae fed on compound treated fresh sweet potato leaves by dual choice leaf disk assay; assay type: functional
[2] = Lipophilicity of the compound assessed as retardation factor using hexane-ethyl acetate solvent system (5:2) on silica gel TLC plate system; assay type: physicochemical; conditions: hexane-ethyl acetate (5:2)
[3] = tested on: Daphnia magna; experiment: Toxicity against Daphnia magna after 12 hr post compound treatment; assay type: organism-based; conditions: in vivo

SMILES	ED50 [1]	pED50 [1]	Rf [2]	LD50 [3] [ppm]
COc1cc2c(c(OC)c1C(C)=O)CC(C(C)C)O2 (centres undefined)	7.6 ×10⁻⁸ mol/cm2	7.12	0.58	–
C=C(C)C1Cc2ccccc2O1 (centres undefined)	1.1 umol/cm2	5.96	0.92	–
C=C(C)C1Cc2c(OC)cc(OC)c(C(C)=O)c2O1 (centres undefined)	5.4 ×10⁻⁹ mol/cm2	8.27	0.24	9.1
C=C(C)C1Cc2cc(C(C)=O)c(OC)cc2O1 (centres undefined)	4.2 ×10⁻⁸ mol/cm2	7.38	0.62	–
C=C(C)C1Cc2c(cc(OC)c(C(C)O)c2OC)O1 (centres undefined)	1.1 ×10⁻⁷ mol/cm2	6.96	0.83	–
C=C(C)[C@@H]1Cc2c(cc(OC)c(C(C)=O)c2O)O1 [REMIROL]	1.3 ×10⁻⁷ mol/cm2	6.89	0.51	–
C=C(C)C1Cc2c(cc(OC)c(C(C)=O)c2O)O1 (racemic)	7.1 ×10⁻⁸ mol/cm2	7.15	0.51	–
C=C(C)C1Cc2c(OC)c(OC)c(OC)c(C(C)=O)c2O1 (centres undefined)	1.6 ×10⁻⁸ mol/cm2	7.8	0.52	–
C=C(C)C1Cc2cc(OC)ccc2O1 (centres undefined)	1.3 ×10⁻⁷ mol/cm2	6.89	0.84	–
C=C(C)C1Cc2c(cc(OC)c(OC)c2OC)O1 (centres undefined)	5.6 ×10⁻⁸ mol/cm2	7.25	0.68	–
C=C(C)C1Cc2ccc(OC)cc2O1 (centres undefined)	6.3 ×10⁻⁷ mol/cm2	6.2	0.86	–
C=C(C)C1Cc2c(OC)cc(OC)cc2O1 (centres undefined)	5.3 ×10⁻⁸ mol/cm2	7.28	0.82	–
C=C(C)c1cc2cc(C(C)=O)c(OC)cc2o1 [MethylEuparin]	6.1 ×10⁻⁸ mol/cm2	7.21	0.66	–
C=C(C)c1cc2cc(C(C)=O)c(O)cc2o1 [EUPARIN]	1.2 ×10⁻⁹ mol/cm2	5.92	0.76	–
C=C(C)C1Cc2c(cc(OC)c(C(C)=O)c2OC)O1 (centres undefined)	2.8 ×10⁻⁸ mol/cm2	7.55	0.52	–
C=C(C)C1Cc2cc(C(C)=O)ccc2O1 (racemic)	7.4 ×10⁻⁸ mol/cm2	7.13	0.61	–
